# ChEMBL document CHEMBL1201862, “PubChem BioAssay data set” (2004)
# Calls of active or inactive are those of the source.
# Tests used:
# Vero [1] = experiment: cells; format: functional, cell-based; details: Chlorocebus sabaeus
# [2] = target: Delta-type opioid receptor (Homo sapiens, UniProt P41143); experiment: Counterscreen for agonists of heterodimerization of the mu 1 (OPRM1) and delta 1 (OPRD1) opioid receptors: Luminescence-based cell-based high throughput dose response assay to identify agonists of OPRD1 homodimerization. [Related pubchem assays (depositor defined):AID504326, AID504355, AID504692, AID504904, AID504905]; format: functional
# Mu-type opioid receptor = Mu-type opioid receptor (Homo sapiens, UniProt P35372); experiment: Counterscreen for agonists of heterodimerization of the mu 1 (OPRM1) and delta 1 (OPRD1) opioid receptors: Luminescence-based cell-based high throughput dose response assay to identify agonists of OPRM1 homodimerization.; format: functional;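 note: U2OS cells expressing OPRM1 and beta-arrestin as split beta-galactosidase partners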
# [3] = target: 5-hydroxytryptamine receptor 5A (Homo sapiens, UniProt P47898); experiment: Counterscreen for agonists of OPRM1-OPRD1 heterodimerization: luminescence-based cell-based high throughput dose response assay to identify agonists of 5-hydroxytryptamine (serotonin) 5A receptor (HTR5A). [Related pubchem assays (depositor defined):AID504326, AID504355, AID504692, AID504904, AID504905]; format: functional
# Vero [4] = experiment: cells; format: functional; details: Chlorocebus sabaeus
# [5] = viability loss in HepG2 hepatoma cells – cell-based, ATP luminescence, cherry-pick, activator set 2, cytotoxicity control, dose response (AID 1053143); format: functional
# CAAX prenyl protease 2 [6] = target: T1, CAAX prenyl protease 2 (Saccharomyces cerevisiae S288c, UniProt Q03530); format: biochemical
# T1 sequence (Q03530 whole entry): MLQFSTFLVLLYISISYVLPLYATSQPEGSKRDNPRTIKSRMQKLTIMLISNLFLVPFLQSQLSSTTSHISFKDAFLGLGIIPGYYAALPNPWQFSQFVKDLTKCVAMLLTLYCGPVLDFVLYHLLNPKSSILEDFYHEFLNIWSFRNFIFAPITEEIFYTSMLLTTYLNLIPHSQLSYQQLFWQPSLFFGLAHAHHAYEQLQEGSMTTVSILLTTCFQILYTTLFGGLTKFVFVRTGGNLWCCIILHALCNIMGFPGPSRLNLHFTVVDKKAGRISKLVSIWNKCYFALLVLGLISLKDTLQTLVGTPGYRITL
# CAAX prenyl protease 1 = CAAX prenyl protease 1 (Saccharomyces cerevisiae S288c, UniProt P47154); experiment: yeast CAAX protease Ste24 inhibition – biochemical, S. cerevisiae, plate reader, cherry-pick, dose response (AID 488815)
# [7] = target: T2, Microphthalmia-associated transcription factor (Homo sapiens, UniProt O75030); experiment: reducers of TRPM1 reporter luminescence, concentration series – cell-based, SK-MEL-5, cherry-picked, set 3, MITF inhibitor project, dose response (AID 493073); format: functional;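 note: SK-MEL-5 melanoma cells with luciferase driven by the MITF target TRPM1 promoter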
# T2 sequence (O75030 whole entry): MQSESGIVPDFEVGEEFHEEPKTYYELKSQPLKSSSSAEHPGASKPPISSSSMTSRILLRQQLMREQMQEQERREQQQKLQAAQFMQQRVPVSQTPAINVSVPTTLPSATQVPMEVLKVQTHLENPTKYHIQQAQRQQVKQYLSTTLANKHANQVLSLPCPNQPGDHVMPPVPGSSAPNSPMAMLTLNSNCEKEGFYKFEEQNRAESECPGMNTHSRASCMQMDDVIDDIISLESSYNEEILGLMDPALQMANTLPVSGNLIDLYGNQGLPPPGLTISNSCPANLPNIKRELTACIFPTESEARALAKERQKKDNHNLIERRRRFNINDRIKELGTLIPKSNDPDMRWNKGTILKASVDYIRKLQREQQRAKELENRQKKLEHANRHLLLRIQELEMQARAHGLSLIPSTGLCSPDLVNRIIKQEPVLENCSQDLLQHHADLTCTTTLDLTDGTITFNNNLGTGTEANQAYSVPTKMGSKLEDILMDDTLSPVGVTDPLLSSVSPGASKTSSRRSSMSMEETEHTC
# A-375 [8] = experiment: proliferation inhibition in MITF-low A375 cells – cell-based, cherry-pick samples, set 2, counter-screen for MITF modulator project, dose response (AID 540335); format: functional; details: Homo sapiens
# CAAX prenyl protease 2 [9] = target: CAAX prenyl protease 2 (Homo sapiens, UniProt Q9Y256); experiment: inhibition of Ras-converting CAAX protease Rce1 – biochemical, yeast membranes, quenched-peptide fluorescence, cherry-pick, dose response (AID 588849)
# [10] = viability of PTEN-deleted HCT116 cells – cell-based, HCT116 PTEN knockout, dose response (AID 1047); format: functional;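 note: HCT116 colon tumor cells with PTEN knocked out; cells exposed to compound for 60 hours before readout; potency for loss of cell viability measured by luminescence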
# [11] = viability of HCT116 lacking mutant beta-catenin – cell-based, human colon tumor, dose response (AID 1045); format: functional;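 note: HCT116 colon tumor cells with beta catenin knocked out; cells exposed to compound for 60 hours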
# [12] = target: Heat shock protein HSP 90-alpha (Homo sapiens, UniProt P07900); format: functional, organism-based
# A-375 [13] = experiment: MITF: Counter assay: A375 proliferation Measured in Cell-Based System Using Plate Reader - 2084-03_Inhibitor_Dose_DryPowder_Activity. [Related pubchem assays (depositor defined):AID488944]; format: functional; details: Homo sapiens
# [14] = target: T3, RNA-binding protein pos-1 (Caenorhabditis elegans, UniProt G5EF15); experiment: disruptors of C. elegans POS-1 RNA interaction – biochemical, fluorescence polarization, dose response (AID 1964);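 note: purified POS-1 fused to maltose binding protein made in E. coli; potency of compounds blocking POS-1 binding to fluorescent RNA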
# T3 sequence (G5EF15 whole entry): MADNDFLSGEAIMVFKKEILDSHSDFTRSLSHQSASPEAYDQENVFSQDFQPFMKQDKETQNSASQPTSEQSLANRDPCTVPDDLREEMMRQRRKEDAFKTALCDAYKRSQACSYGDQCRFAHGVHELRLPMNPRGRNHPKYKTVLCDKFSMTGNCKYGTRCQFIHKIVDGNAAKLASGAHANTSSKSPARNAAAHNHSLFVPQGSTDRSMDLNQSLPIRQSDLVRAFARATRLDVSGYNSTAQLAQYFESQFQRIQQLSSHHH
# [15] = target: T4, Zinc finger protein mex-5 (Caenorhabditis elegans, UniProt Q9XUB2); experiment: potency of MEX-5 RNA-binding blockers – biochemical, C. elegans, fluorescence polarization, dose response (AID 1960)
# T4 sequence (Q9XUB2 whole entry): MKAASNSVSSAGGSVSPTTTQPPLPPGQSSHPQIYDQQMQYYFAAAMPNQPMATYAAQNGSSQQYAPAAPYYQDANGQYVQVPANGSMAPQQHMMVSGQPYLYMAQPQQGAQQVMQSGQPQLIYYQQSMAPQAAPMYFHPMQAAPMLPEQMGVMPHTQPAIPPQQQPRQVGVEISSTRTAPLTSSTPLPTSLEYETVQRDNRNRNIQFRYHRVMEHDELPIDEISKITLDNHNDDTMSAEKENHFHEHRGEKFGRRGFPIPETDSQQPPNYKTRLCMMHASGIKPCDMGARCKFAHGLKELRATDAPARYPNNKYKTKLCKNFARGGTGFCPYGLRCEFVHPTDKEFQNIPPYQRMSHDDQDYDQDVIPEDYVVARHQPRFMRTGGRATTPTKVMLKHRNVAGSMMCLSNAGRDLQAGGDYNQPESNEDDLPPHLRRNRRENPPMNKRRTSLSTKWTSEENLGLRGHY
# [16] = target: Intestinal-type alkaline phosphatase (Mus musculus, UniProt P24822); experiment: PubChem AID 488785; format: functional
# [17] = target: T5, Alkaline phosphatase, tissue-nonspecific isozyme (Homo sapiens, UniProt P05186); experiment: TNAP enzyme inhibition by screening hits, dose response, selectivity assay for mouse IAP inhibitor project, biochemical, human TNAP, uHTS hits (AID 488906); format: functional
# T5 sequence (P05186 whole entry): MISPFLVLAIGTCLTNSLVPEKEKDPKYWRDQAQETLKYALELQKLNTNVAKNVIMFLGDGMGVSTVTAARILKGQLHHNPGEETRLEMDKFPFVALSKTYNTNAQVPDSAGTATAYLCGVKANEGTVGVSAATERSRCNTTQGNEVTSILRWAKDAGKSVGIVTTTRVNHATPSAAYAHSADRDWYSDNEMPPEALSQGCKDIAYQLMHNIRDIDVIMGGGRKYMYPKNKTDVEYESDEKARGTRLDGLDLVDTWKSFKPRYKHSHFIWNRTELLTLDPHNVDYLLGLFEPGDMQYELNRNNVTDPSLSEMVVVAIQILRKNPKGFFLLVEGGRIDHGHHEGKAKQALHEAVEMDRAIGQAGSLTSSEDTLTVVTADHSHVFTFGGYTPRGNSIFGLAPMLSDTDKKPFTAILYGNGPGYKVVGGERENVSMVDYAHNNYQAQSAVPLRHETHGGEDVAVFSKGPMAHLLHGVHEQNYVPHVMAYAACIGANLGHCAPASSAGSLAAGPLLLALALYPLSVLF
# [18] = target: Intestinal-type alkaline phosphatase (Homo sapiens, UniProt P09923); experiment: inhibition of human intestinal alkaline phosphatase – biochemical, dose response (AID 488876); format: functional
# Genome polyprotein = Genome polyprotein (dengue virus type 2, UniProt P29990); experiment: flavivirus cap methylation enzyme inhibition – biochemical, confirmation dose response, primary screen (AID 588689); format: functional
# [19] = target: DNA (cytosine-5)-methyltransferase 1 (Homo sapiens, UniProt P26358); experiment: inhibition of DNA methylation by DNMT1 – biochemical, fluorescent molecular beacon, confirmation (AID 602386); format: functional
# Beta-galactosidase = Beta-galactosidase (Escherichia coli, UniProt Q8VNN2); experiment: PubChem AID 485352; format: functional
# [20] = target: Type-1 angiotensin II receptor (Homo sapiens, UniProt P30556); experiment: antagonism of angiotensin II type 1 receptor – cell-based, uHTS hits, selectivity assay for APJ receptor antagonist project, dose response (AID 463214); format: functional;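 note: antagonist potency against angiotensin II stimulated AT1 response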
# [21] = target: Bifunctional protein GlmU (Mycobacterium tuberculosis, UniProt P9WMN3); experiment: Inhibitors of Mycobacterial Glucosamine-1-phosphate acetyl transferase (GlmU). Secondary screen.; parameters: species or system Mycobacterium tuberculosis H37Rv
# [22] = target: Induced myeloid leukemia cell differentiation protein Mcl-1 (Homo sapiens, UniProt Q07820); format: functional
# Cytochrome P450 1A2 = target: T6, Cytochrome P450 1A2 (Homo sapiens, UniProt P05177);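 note: PubChem cytochrome P450 panel assay, CYP1A2 panel member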
# T6 sequence (P05177 whole entry): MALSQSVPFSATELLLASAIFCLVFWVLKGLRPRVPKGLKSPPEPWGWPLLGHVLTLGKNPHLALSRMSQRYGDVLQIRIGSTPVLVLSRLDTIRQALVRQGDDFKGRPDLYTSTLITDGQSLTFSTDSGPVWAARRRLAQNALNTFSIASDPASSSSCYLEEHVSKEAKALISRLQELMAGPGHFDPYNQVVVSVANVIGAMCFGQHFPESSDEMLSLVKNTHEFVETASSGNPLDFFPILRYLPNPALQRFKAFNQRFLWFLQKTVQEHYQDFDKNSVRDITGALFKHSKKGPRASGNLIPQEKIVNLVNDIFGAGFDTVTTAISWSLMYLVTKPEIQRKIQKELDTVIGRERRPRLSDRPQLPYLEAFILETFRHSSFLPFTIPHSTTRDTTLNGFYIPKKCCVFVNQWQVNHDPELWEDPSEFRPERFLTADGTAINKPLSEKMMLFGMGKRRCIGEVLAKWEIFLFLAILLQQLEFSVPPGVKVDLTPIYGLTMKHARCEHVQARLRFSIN
# Cytochrome P450 2C9 = Cytochrome P450 2C9 (Homo sapiens, UniProt P11712)
# [23] = Trypanosoma cruzi growth suppression in host cells – NIH3T3 host cells, beta-gal luminescence, confirmation (AID 2044); format: functional, cell-based;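 note: intracellular parasites grown in NIH/3T3 mouse fibroblasts as host cells; luminescent beta-galactosidase reporter signal from transgenic T. cruzi replicating inside host cells; inhibitors lower the luminescence signal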
# [24] = NIH3T3 cell viability loss – ATP luminescence, mouse fibroblasts, counter-screen, dose response (AID 2010); format: functional, cell-based;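 note: cells exposed to compound for about 90 hours before reading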
# [25] = reduction of Shn3 3'UTR-driven luciferase in osteoblasts – cell-based, Clone20 osteoblasts, firefly luciferase, cherry-picked, dose response (AID 624132); format: functional;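 note: firefly luciferase luminescence from reporter carrying the Shn3 3'UTR in osteoblasts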
# [26] = loss of viability in HepG2 cells – cell-based, CellTiter-Glo, cherry-picked, cytotoxicity control for Shn3 inhibitor project, dose response (AID 624134); format: functional
# Intestinal-type alkaline phosphatase (Homo sapiens, UniProt P09923), sequence (P09923 whole entry): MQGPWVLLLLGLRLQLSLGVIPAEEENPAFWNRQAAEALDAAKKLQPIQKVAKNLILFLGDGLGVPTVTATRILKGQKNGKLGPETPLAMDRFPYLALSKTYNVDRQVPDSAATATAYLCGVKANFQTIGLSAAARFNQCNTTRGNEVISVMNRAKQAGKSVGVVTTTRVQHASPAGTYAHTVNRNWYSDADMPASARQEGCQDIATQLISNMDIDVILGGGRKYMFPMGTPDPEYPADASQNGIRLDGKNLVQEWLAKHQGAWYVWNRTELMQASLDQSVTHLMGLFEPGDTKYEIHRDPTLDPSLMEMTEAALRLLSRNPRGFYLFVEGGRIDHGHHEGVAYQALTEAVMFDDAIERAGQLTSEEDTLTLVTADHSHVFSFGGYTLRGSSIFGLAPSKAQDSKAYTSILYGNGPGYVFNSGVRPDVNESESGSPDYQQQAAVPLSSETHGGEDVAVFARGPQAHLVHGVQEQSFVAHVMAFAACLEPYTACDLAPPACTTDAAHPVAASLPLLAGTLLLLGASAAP
# Intestinal-type alkaline phosphatase (Mus musculus, UniProt P24822), sequence (P24822 whole entry): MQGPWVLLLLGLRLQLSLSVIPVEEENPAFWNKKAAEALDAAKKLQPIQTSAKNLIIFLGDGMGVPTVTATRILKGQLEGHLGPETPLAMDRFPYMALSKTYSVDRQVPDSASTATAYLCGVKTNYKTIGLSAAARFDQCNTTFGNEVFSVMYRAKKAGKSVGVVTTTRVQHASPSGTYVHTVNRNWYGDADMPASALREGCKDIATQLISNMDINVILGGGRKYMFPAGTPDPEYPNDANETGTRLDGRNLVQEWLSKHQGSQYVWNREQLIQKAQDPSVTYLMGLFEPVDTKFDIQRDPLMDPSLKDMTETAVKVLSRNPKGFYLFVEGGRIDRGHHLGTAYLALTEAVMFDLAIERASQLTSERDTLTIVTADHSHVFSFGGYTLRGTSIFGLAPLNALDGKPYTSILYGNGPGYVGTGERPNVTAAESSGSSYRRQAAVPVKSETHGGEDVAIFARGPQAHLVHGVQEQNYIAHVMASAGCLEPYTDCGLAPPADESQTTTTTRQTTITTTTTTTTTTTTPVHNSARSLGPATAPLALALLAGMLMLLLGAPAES
# Bifunctional protein GlmU, sequence (P9WMN3 whole entry): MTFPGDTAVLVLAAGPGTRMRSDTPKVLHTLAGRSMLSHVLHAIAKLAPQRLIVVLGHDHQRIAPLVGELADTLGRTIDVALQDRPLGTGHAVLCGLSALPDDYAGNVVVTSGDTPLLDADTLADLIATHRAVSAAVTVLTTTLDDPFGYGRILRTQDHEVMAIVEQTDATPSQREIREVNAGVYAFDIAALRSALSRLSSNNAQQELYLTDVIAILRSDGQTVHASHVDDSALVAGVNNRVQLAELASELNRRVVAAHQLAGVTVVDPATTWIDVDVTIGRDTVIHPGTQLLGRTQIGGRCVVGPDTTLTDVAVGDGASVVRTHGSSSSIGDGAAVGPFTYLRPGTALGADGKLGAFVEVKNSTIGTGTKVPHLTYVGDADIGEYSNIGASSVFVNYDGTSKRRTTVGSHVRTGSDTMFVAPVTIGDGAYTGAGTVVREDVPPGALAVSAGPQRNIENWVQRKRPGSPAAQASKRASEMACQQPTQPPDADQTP
# DNA (cytosine-5)-methyltransferase 1, sequence (P26358 whole entry): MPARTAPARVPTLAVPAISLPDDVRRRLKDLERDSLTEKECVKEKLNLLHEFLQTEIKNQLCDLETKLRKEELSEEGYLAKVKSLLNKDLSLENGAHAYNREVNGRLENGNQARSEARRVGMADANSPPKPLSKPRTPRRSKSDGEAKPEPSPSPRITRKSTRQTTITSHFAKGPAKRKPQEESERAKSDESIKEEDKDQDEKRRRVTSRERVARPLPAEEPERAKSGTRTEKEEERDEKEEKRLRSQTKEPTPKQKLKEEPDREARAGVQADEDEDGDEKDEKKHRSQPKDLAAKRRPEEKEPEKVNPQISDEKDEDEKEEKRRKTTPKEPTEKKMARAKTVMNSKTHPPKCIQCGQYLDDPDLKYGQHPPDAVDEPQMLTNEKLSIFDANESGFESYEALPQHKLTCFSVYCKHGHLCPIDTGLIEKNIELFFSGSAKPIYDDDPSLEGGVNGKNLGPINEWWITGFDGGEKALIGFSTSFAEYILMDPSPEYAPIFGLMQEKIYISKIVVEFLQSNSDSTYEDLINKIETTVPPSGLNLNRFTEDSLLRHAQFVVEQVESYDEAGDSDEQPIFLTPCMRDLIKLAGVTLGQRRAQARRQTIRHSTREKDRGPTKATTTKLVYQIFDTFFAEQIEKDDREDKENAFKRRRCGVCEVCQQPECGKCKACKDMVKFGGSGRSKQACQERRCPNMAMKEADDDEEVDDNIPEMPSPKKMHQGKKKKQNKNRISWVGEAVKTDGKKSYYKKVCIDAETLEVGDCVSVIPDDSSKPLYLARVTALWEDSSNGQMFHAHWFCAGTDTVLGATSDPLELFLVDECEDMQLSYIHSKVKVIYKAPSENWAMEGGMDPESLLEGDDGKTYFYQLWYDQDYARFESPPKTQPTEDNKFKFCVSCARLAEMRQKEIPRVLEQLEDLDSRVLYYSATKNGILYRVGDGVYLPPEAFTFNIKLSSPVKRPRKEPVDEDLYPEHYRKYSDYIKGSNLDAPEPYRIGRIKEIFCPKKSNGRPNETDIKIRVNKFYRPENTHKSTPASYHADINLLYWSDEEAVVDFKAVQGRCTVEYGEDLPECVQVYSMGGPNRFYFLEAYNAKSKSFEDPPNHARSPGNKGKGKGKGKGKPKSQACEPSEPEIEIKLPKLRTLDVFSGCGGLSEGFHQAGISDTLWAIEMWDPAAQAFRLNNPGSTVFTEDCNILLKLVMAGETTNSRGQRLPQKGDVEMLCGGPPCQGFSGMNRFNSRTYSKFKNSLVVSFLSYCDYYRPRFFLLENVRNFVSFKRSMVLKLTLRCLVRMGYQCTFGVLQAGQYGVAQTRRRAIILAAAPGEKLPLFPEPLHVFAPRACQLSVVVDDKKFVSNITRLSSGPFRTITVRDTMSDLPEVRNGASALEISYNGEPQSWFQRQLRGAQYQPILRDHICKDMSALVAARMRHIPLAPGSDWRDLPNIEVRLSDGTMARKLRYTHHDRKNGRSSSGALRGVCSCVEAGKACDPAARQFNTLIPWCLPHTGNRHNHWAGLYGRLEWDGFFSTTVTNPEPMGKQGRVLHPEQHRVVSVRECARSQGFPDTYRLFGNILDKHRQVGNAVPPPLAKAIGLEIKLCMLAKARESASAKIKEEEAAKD
# Type-1 angiotensin II receptor, sequence (P30556 whole entry): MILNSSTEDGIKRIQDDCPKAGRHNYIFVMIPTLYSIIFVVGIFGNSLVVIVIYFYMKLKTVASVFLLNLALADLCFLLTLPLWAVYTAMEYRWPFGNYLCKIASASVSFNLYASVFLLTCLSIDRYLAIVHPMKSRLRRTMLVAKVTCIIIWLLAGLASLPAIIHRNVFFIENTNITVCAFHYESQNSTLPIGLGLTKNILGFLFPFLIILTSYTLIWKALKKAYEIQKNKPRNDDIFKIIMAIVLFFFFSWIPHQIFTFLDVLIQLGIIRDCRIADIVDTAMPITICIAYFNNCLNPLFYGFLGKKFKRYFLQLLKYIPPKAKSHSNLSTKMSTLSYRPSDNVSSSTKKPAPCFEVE
# Genome polyprotein, sequence (P29990 2492-3391 limits assumed): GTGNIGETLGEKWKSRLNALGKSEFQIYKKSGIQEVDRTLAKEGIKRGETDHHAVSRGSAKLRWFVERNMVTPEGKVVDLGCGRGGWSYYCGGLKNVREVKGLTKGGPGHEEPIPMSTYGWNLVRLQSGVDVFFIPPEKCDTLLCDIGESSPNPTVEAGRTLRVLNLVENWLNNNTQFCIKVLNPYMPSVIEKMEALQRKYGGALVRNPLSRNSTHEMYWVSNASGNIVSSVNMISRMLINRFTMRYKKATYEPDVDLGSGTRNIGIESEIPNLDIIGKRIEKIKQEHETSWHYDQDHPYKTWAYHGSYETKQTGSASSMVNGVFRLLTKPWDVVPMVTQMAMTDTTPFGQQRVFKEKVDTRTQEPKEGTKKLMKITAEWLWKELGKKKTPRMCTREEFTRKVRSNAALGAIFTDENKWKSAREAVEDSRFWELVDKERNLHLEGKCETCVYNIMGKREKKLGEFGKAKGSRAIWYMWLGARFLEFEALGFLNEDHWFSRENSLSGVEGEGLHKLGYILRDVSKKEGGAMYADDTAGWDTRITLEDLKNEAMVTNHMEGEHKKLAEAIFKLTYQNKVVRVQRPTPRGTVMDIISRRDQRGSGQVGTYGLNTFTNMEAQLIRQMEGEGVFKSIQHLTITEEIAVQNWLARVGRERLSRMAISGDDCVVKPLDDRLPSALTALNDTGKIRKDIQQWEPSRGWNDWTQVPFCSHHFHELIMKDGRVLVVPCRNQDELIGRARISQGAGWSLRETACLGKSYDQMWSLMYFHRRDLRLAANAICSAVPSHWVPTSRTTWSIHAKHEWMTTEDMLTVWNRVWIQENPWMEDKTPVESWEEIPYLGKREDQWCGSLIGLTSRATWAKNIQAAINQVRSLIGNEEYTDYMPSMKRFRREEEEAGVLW
# Induced myeloid leukemia cell differentiation protein Mcl-1, sequence (Q07820 whole entry): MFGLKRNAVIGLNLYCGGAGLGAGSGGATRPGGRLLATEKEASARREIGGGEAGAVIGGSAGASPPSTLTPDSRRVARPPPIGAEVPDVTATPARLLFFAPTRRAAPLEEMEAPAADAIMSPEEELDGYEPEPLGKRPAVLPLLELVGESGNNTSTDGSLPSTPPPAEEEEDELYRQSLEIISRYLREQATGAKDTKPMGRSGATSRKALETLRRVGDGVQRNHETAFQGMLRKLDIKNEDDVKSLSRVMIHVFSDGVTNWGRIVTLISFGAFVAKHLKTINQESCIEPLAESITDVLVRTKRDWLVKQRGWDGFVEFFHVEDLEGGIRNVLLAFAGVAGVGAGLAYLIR
smiles,measurement,setting,value
CN1CCN(c2ccc(NC(=O)c3ccc(-c4ccccc4F)o3)cc2)CC1,IC50,Vero [1],24.8 µM (active)
same,EC50,[2],32.6 µM (inactive)
same,EC50,Mu-type opioid receptor,26.3 µM (inactive)
same,EC50,[3],> 92.5 µM (inactive)
same,CC50,Vero [4],> 25 µM (active)
same,AC50,[5],26 µM (active)
COc1cc2c(cc1OC)C(C)=NC1(CCCCC1)C2,AC50,CAAX prenyl protease 2 [6],6.87 µM (active)
same,AC50,CAAX prenyl protease 1,8.72 µM (active)
CC(C)Oc1ccc(C(CCNCc2ccc(O)cc2)c2ccccc2)cc1 (configuration not stated),AC50,[7],12.8 µM (active)
same,AC50,A-375 [8],18.8 µM (active)
COc1ccc(-c2c(C)oc3c(CN4CCN(C)CC4)c(O)ccc3c2=O)cc1,AC50,CAAX prenyl protease 2 [6],28.6 µM (active)
same,AC50,CAAX prenyl protease 2 [9],3.72 µM (active)
O=C(/C=C/c1cccc([N+](=O)[O-])c1)c1cccs1,EC50,[10],14.3 µM (active)
same,EC50,[11],10.9 µM (active)
same,AC50,[7],15.3 µM (active)
same,AC50,[12],4.16 µM (active)
same,AC50,A-375 [13],> 35 µM (active)
same,AC50,A-375 [8],> 35 µM (active)
CN1C(=O)NC(=O)/C(=C\c2ccc([N+](=O)[O-])o2)C1=O,EC50,[14],33.3 µM (active)
same,EC50,[15],20.6 µM (active)
same,IC50,[16],> 100 µM (inactive)
same,IC50,[17],> 100 µM (inactive)
same,IC50,[18],> 100 µM (inactive)
same,IC50,Genome polyprotein,42.6 µM (active)
same,IC50,[19],2.08 µM (active)
CCOC(=O)C1=C(C)N=C2CC(c3cccs3)CC(O)=C2C1c1cccs1 (configuration not stated),EC50,Beta-galactosidase,39.3 µM (active)
same,IC50,[20],36 µM (not active)
O=C1CSC(=S)N1/N=C/c1ccc(O)c(O)c1O,EC50,[14],5.17 µM (inconclusive)
same,EC50,[15],0.668 µM (inconclusive)
same,IC50,[21],7.79 µM (active)
same,IC50,[22],1.17 µM (active)
same,IC50,[16],4.15 µM (active)
same,IC50,[17],58.5 µM (active)
same,IC50,[18],> 100 µM (inactive)
CS(=O)(=O)N1CCC2(CCN(c3ccccc3)CC2)CC1,AC50,Cytochrome P450 1A2,inconclusive
same,AC50,Cytochrome P450 2C9,inconclusive
Cc1ccc(-n2cc(CNCCCn3ccnc3C)c(-c3ccc(F)cc3)n2)cc1,EC50,[23],1.77 µM (active)
same,EC50,[24],14.4 µM (active)
same,AC50,[7],7.58 µM (active)
same,AC50,A-375 [13],21.2 µM (active)
same,AC50,[25],20.6 µM (active)
same,AC50,[26],16.7 µM (active)
